Data on 52 compounds can be found in patent publication US12291533B2, “Substituted fused pyrimidine compounds and uses thereof” (Northwestern University, priority 2017, dated 2025).

The experiment deals with T1, glucocerebrosidase (Homo sapiens, UniProt P04062).
T1 sequence (P04062 40-536): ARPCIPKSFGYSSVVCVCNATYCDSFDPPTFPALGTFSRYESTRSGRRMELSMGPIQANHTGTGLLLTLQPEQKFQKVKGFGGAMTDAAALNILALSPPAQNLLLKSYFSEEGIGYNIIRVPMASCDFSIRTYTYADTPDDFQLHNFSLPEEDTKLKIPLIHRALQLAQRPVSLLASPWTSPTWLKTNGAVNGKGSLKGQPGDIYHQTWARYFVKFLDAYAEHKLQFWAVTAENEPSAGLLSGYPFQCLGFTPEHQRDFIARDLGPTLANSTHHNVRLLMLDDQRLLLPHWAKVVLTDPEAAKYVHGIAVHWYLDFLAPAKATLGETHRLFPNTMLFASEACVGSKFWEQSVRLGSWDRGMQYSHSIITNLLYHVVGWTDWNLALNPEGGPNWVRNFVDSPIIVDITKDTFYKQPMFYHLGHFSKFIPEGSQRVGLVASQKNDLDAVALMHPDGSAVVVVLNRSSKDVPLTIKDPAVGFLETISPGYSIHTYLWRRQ
Description: Glucocerebrosidase activity assay with blue substrate (4MU-Glc). It counts as biochemical. The protocol: Example 2—Glucocerebrosidase Activity Assay with Blue Substrate
The compounds in DMSO solution 0.5 μL/well were transferred to a black 96-well plate (the final titration was 24 nM to 50 μM, 12 concentrations, 2× dilution). 33.5 μL enzyme solution (7.5 nM final concentration) was transferred to the wells. After 5 min of incubation at room temperature, the enzyme reaction was initiated by the addition of 33 μL/well blue substrate. Final concentration of the blue substrate (4MU-Glc) was 1.5 mM. The blue substrate reaction was terminated by the addition of 33 μL/well stop solution (1 M NaOH and 1 M glycine mixture, pH 10) after 30 min of incubation at 37° C. The fluorescence was then measured in the Biotek Synergy H1 multi-mode plate reader with Ex=365 nm and Em=440 nm.
Additional compounds were synthesized and tested for glucocerebrosidase modulatory activity as described in Example 1 and Example 2.

[1] abbreviates: Table 1, 7.5 nM enzyme, 1.5 mM 4MU-Glc, 30 min at 37° C.
The mark [2] stands for this setting: Table 1, 7.5 nM enzyme, 1.5 mM 4MU-Glc, 30 min at 37° C., titration 24 nM to 50 μM.
[3] abbreviates: Table 2, additional compounds, tested as described in Example 2.

Structures are written as SMILES.

`CN(CCOc1ccccc1)c1cc(N2CCOCC2)nc(-c2cccnc2)n1` [Compound 71]: the Emax (commonly the maximal effect, on the per cent scale that the assay sets) under setting [1] came out at 346%. In addition, under setting [2], the concentration at half-maximal activity (AC50) (in general, the concentration at which the activity in the assay is half-maximal) turned out to be 15.8 µM. `CN(CCOc1ccccc1)c1nc(-c2cccnc2)nc2cc(C(F)(F)F)ccc12` [Compound 44]: the Emax under setting [1] was 180%. Besides, the AC50 under setting [2] came to 4.12 µM.

Consider `CN(CCOc1ccc(CCc2ccccc2)cc1)c1nc(-c2cccnc2)nc2ccccc12` [Compound 21], for which the Emax under setting [1] amounted to 180%. For the same compound, the concentration at half-maximal activity (AC50) under setting [2] was found to be 15.8 µM.

For the compound `CCn1ncc2c(N(C)CCOc3ccc(CNC(=O)CNC(=O)OC(C)(C)C)cc3)nc(-c3cccnc3)nc21` [Compound 139], under setting [3], the AC50 came out at 6.31 µM and the maximal response (Emax) is 980%. For `CN(CCC(=O)Nc1ccccc1)c1nc(-c2cccnc2)nc2c1cnn2C` [Compound 128], in that order: 44.7 µM and 275%.

Turning to `CN(CCOc1ccccc1)c1nc(Nc2ccccc2)nc2ccccc12` [Compound 66], the Emax under setting [1] came to 141%. In addition, the AC50 under setting [2] amounted to 7.08 µM. `CN(C[C@H]1COc2ccccc2O1)c1nc(-c2cccnc2)nc2ncccc12` [Compound 11]: the concentration at half-maximal activity (AC50) under setting [2] amounted to 3.83 µM.

In the case of `CN(CCOc1ccccc1)c1nc(-c2cncc(C(F)(F)F)c2)nc2ccccc12` [Compound 37], the Emax under setting [1] is 250%. In addition, the AC50 under setting [2] stood at 1.65 µM. Turning to `CN(CCOc1ccccc1)c1nc(-c2ccnc3ccccc23)nc2ccccc12` [Compound 81], under setting [1], the Emax was 280%. The AC50 under setting [2] is 3.16 µM. `CCCCCCCCCN(C)c1nc(-c2cccnc2)nc2ccccc12` [Compound 179]: under setting [3], the half-maximal activity concentration (AC50) came out at 6.31 µM and the maximum response (Emax) was found to be 118%. Consider `CCn1ncc2c(N(C)CCOc3ccc(CNC(=O)CCNC(=O)OC(C)(C)C)cc3)nc(-c3cccnc3)nc21` [Compound 140], for which, under setting [3], the AC50 was 2.82 µM and the Emax stood at 980%. Regarding `CN(CCOc1ccc2[nH]ccc2c1)c1nc(-c2cccnc2)nc2ccccc12` [Compound 147], under setting [3], the AC50 was 4.47 µM and the Emax was found to be 450%.

For the compound `CCc1ccc(-c2nc(N(C)CCOc3ccc(C#N)cc3)c3cnn(CC)c3n2)cc1` [Compound 123], under setting [3], the concentration at half-maximal activity (AC50) came out at 3.16 µM and the maximal effect (Emax) is 105%.

On to `CCn1ncc2c(N(C)CCOc3ccccc3)nc(-c3cccnc3)nc21` [Compound 99], for which the Emax under setting [1] was found to be 208%. Under setting [2], the AC50 was determined as 0.71 µM. For the compound `Cc1cc(C)cc(OCCN(C)c2nc(-c3cccnc3)nc3ccccc23)c1` [Compound 27], the Emax under setting [1] was 225%. Further, the AC50 under setting [2] amounted to 3.98 µM. `CN(CCOc1ccccc1)c1nc(-c2coc3ccccc23)nc2ccccc12` [Compound 49]: the Emax under setting [1] was determined as 120%. Moreover, under setting [2], the AC50 is 2.42 µM. Regarding `Cc1cc(-c2nc(N(C)CCOc3ccccc3)c3ccccc3n2)ccn1` [Compound 169], under setting [3], the AC50 was found to be 15.8 µM and the Emax was determined as 191%.

Regarding `CN(CCOc1ccccc1)c1cc(-c2cccnc2)nc(-c2cccnc2)n1` [Compound 85], the maximum response (Emax) under setting [1] was found to be 460%. Under setting [2], the AC50 was found to be 2.24 µM. In the case of `CCn1ncc2c(N(C)CCOc3ccc(CNC(=O)CCCCNC(=O)OC(C)(C)C)cc3)nc(-c3ccsc3)nc21` [Compound 149], under setting [3], the AC50 was determined as 0.4 µM and the Emax came to 157%.

For `COC(=O)c1ccc(OCCN(C)c2nc(-c3cccnc3)nc3ccccc23)cc1` [Compound 76], the Emax under setting [1] was determined as 255%. Moreover, the AC50 under setting [2] turned out to be 4.47 µM. As for `CN(CCOc1ccccc1)c1cc(N2CC[C@@H](O)C2)nc(-c2cccnc2)n1` [Compound 171], under setting [3], the AC50 was determined as 5 µM and the Emax was 280%. With `CCn1ncc2c(N3CCC[C@@H](Oc4ccccc4)C3)nc(-c3cccnc3)nc21` [Compound 164], under setting [3], the AC50 was 28.2 µM and the Emax worked out at 425%.

`CN(Cc1ccc2ncccc2c1)c1nc(-c2cccnc2)nc2c1cnn2C` [Compound 109]: the Emax under setting [1] stood at 475%. Under setting [2], the AC50 stood at 14.1 µM. Turning to `CN(CCOc1ccccc1)c1nc(-c2ccc(Cl)nc2)nc2ccccc12` [Compound 17], the maximum response (Emax) under setting [1] worked out at 190%. For the same compound, the AC50 under setting [2] stood at 1.58 µM.

For the compound `Cc1cccc(OCCN(C)c2nc(-c3cccnc3)nc3ccccc23)c1` [Compound 23], under setting [1], the Emax is 500%. Besides, the concentration at half-maximal activity (AC50) under setting [2] was found to be 3.55 µM. `CN(CCOc1ccccc1)c1nc(-c2cccnc2)nc2[nH]ccc12` [Compound 63]: under setting [1], the Emax worked out at 461%. Under setting [2], the AC50 is 3.98 µM. With `c1ccc(O[C@@H]2CCCN(c3nc(-c4cccnc4)nc4ccccc34)C2)cc1` [Compound 26], under setting [1], the Emax worked out at 225%. The AC50 under setting [2] is 1.78 µM.

For the compound `CN(CCc1c[nH]c2ccccc12)c1nc(-c2cccnc2)nc2ccccc12` [Compound 30], under setting [1], the Emax is 250%. The AC50 under setting [2] was determined as 5.01 µM. For `CN(CCN1CCc2ccccc2C1)c1nc(-c2cccnc2)nc2c1cnn2C` [Compound 101], in that order: 197% and 79.4 µM. Taken in the same sequence, the figures for `CN(Cc1ccc2ccccc2n1)c1nc(-c2cccnc2)nc2c1cnn2C` [Compound 104] were 425% and 6.31 µM. Turning to `CN(CCOc1ccccc1)c1nc(-c2cccnc2)nc2c1SCC2` [Compound 68], the maximal response (Emax) under setting [1] is 327%. Moreover, the AC50 under setting [2] amounted to 12.6 µM. As to `c1ccc(O[C@H]2CCN(c3nc(-c4cccnc4)nc4ccccc34)C2)cc1` [Compound 154], under setting [3], the AC50 amounted to 4.47 µM and the Emax was 190%.

As for `CN(CCOc1ccccc1)c1nc(-c2cccnc2)nc2cc(F)ccc12` [Compound 39], the Emax under setting [1] stood at 450%. Further, under setting [2], the AC50 is 2.82 µM. Consider `CN(CCOc1ccccc1)c1nc(-c2ccc(O)nc2)nc2ccccc12` [Compound 51], for which the Emax under setting [1] is 200%. Further, the AC50 under setting [2] was 8.17 µM. Consider `CN(CCOc1ccccc1)c1nc(-c2cccnc2)nc2c1COC2` [Compound 73], for which the Emax under setting [1] came to 330%. Besides, under setting [2], the AC50 was found to be 5.62 µM. On to `CN(CCOc1ccccc1)c1nc(-c2cccnc2)nc2c1cnn2C` [Compound 78], for which the Emax under setting [1] was 425%. Further, under setting [2], the AC50 was 1.56 µM.

Consider `CN(CCOc1ccccc1)c1cc(C2CC[C@H](O)C2)nc(-c2cccnc2)n1` (stereo partly shown) [Compound 172], for which, under setting [3], the AC50 stood at 8.9 µM and the Emax is 525%. In the case of `Cc1nn(Cc2ccccc2)c(C)c1Nc1nc(-c2cccnc2)nc2ccccc12` [Compound 70], the Emax under setting [1] turned out to be 191%. In addition, the half-maximal activity concentration (AC50) under setting [2] came out at 8.91 µM. For `c1ccc(OC2CCN(c3nc(-c4cccnc4)nc4ccccc34)C2)cc1` (stereo not shown) [Compound 22], in that order: 300% and 1.58 µM. As for `CN(CCOc1ccccc1)c1nc(-c2ccc(N)nc2)nc2ccccc12` [Compound 54], the Emax under setting [1] turned out to be 170%. The AC50 under setting [2] came to 3.1 µM. Taken in the same sequence, the figures for `CN(CCOc1ccccc1)c1nc(-c2cccnc2)nc2ccc(C(F)(F)F)cc12` [Compound 45] were 120% and 5 µM. Consider `CN(CC1CCc2ccccc2O1)c1nc(-c2cccnc2)nc2c1cnn2C` (stereo not shown) [Compound 105], for which, under setting [1], the Emax amounted to 662%. Moreover, the AC50 under setting [2] worked out at 6.31 µM. Turning to `CN(Cc1cc2ccccc2o1)c1nc(-c2cccnc2)nc2c1cnn2C` [Compound 89], under setting [1], the maximal effect (Emax) was found to be 660%. Also, the AC50 under setting [2] is 4.47 µM. Consider `CCn1ncc2c(N(C)Cc3ccc4c(c3)OCO4)nc(-c3cccnc3)nc21` [Compound 108], for which, under setting [1], the maximum response (Emax) was determined as 400%. The AC50 under setting [2] worked out at 7.08 µM.

In the case of `CCn1ncc2c(N(C)CCOc3ccc(CNC(=O)CCCCCN)cc3)nc(-c3cccnc3)nc21` [Compound 112], the Emax under setting [1] came to 530%. The concentration at half-maximal activity (AC50) under setting [2] is 3.55 µM.

Regarding `Cn1ncc2c(N3CCC[C@@H](C(=O)Nc4ccccc4)C3)nc(-c3cccnc3)nc21` [Compound 117], under setting [3], the AC50 is 14.1 µM and the Emax turned out to be 310%. Take `CC(C)Cn1ncc2c(N(C)CCOc3ccccc3)nc(-c3cccnc3)nc21` [Compound 183]: under setting [3], the AC50 was determined as 2.5 µM and the maximum response (Emax) came to 340%.

Turning to `CCn1ncc2c(N(C)CCOc3ccc(CNC(=O)CCCNC(=O)OC(C)(C)C)cc3)nc(-c3cccnc3)nc21` [Compound 146], under setting [3], the AC50 stood at 1.41 µM and the Emax came out at 940%.

For the compound `CCn1ncc2c(N(C)CCOc3ccc(CN)cc3)nc(-c3ccsc3)nc21` [Compound 137], under setting [3], the AC50 amounted to 2 µM and the Emax was 200%. As for `CN(CCOc1ccccc1)c1nc(-c2cccnc2)nc2c(F)cccc12` [Compound 38], the Emax under setting [1] came to 700%. The AC50 under setting [2] is 2.82 µM. As for `CN(CCOc1ccccc1)c1nc(-c2cccnc2)nc2sccc12` [Compound 60], under setting [1], the Emax is 624%. The AC50 under setting [2] came to 3.16 µM. Take `CN(CCOc1ccccc1)c1nc(-c2cccnc2)nc2c1oc1ccccc12` [Compound 153]: under setting [3], the AC50 was 1.58 µM and the Emax turned out to be 178%.
